Results taken from ChEMBL document CHEMBL3045416, “Synthesis and biological evaluation of new curcumin derivatives as antioxidant and antitumor agents” (Med Chem Res, 2013).

Legend:
HepG2 = assay: Cytotoxicity against Homo sapiens (human) HepG2 cells assessed as cell viability at 20 ug/ml by trypan blue assay; assay type: functional; details: read-out: Activity
WI-38 = assay: Cytotoxicity against Homo sapiens (human) WI38 cells assessed as cell viability at 20 ug/ml by trypan blue assay; assay type: functional; details: read-out: Activity
[1] = Antioxidant activity assessed as inhibition of ABTS radical production at 1 mg/ml; assay type: functional
MCF7 = assay: Cytotoxicity against Homo sapiens (human) MCF7 cells assessed as cell viability at 20 ug/ml by trypan blue assay; assay type: functional; details: read-out: Activity
Vero = assay: Cytotoxicity against Chlorocebus aethiops (African green monkey) Vero cells assessed as cell viability at 20 ug/ml by trypan blue assay; assay type: functional; details: Chlorocebus sabaeus, read-out: Activity
[2] = Induction of Homo sapiens (human) RBC haemolysis at 2 ug/ml by spectrophotometric anlaysis; assay type: cell-based, Erythrocyte; details: red blood cells, read-out: Activity
[3] = Antihaemolysis activity in Homo sapiens (human) RBC assessed as inhibition of ABTS-induced haemolysis at 20 ug/ml incubated for 30 min prior to ABTS-challenge by spectrophotometric analysis; assay type: functional; details: Erythrocyte
[4] = Antioxidant activity assessed as inhibition of ABTS radical production at 2 mM; assay type: functional

Compound | viability at 20 µg/mL (HepG2) | viability at 20 µg/mL (WI-38) | inhibition [1] | viability at 20 µg/mL (MCF7) | viability at 20 µg/mL (Vero) | hemolysis at 2 ug/ml [2] | inhibition at 20 µg/mL [3] | inhibition [4]
O=C1/C(=C/c2ccc(O)cc2)CCC/C1=C\c1ccc(O)cc1 | 88% | 77% | 9.49% | 74% | 84% | 100% | – | –
COc1cc(/C=C2\CCCC3=C2OC(N)=C(C#N)C3c2ccc(O)c(OC)c2)ccc1O (configuration not stated) | 81% | 84% | 57.8% | 79% | 82% | 100% | – | –
COc1ccc(/C=C/C(=O)C(C)(C)C(=O)/C=C/c2ccc(OC)c(OC)c2)cc1OC | 78% | 75% | 12.6% | 87% | 89% | 100% | – | –
COc1ccc(OC)c(/C=C2\CCCC3=C2OC(N)=C(C#N)C3c2cc(OC)ccc2OC)c1 (configuration not stated) | – | – | 0.38% | – | – | – | – | –
COc1ccc(/C=C2\CCCCC3C2=NN(c2ccc(Br)cc2)C3c2ccc(OC)c(OC)c2)cc1OC (configuration not stated) | – | – | – | – | – | 100% | – | –
N#CC1=C(N)OC2=C(CCC/C2=C\c2ccc(Cl)cc2)C1c1ccc(Cl)cc1 (configuration not stated) | – | – | 1.55% | – | – | – | – | –
COc1cc(/C=C/C(=O)C(C)(C)C(=O)/C=C/c2ccc(O)c(OC)c2)ccc1O | 47% | 78% | 52.9% | 55% | 82% | – | – | –
CCOc1ccc(/C=C/C(=O)C(CC)(CC)C(=O)/C=C/c2ccc(OCC)c(OC)c2)cc1OC | 78% | 82% | 26.4% | 94% | 88% | – | – | –
COc1ccc(/C=C2\CCC/C(=C\c3ccc(OC)c(OC)c3)C2=O)cc1OC | – | – | 0% | – | – | 100% | – | –
COc1ccc(/C=C2\CCCC3C2=NN(c2ccc(Br)cc2)C3c2ccc(OC)cc2)cc1 (configuration not stated) | – | – | 5.03% | – | – | 100% | – | –
Clc1ccc(/C=C2\CCCC3C2=NN(c2ccc(Br)cc2)C3c2ccc(Cl)cc2)cc1 (configuration not stated) | – | – | 2.9% | – | – | 100% | – | –
CC(C)(C(=O)/C=C/c1ccc(O)cc1)C(=O)/C=C/c1ccc(O)cc1 | 57% | 88% | 28.7% | 64% | 82% | 100% | – | –
COc1ccc(OC)c(/C=C2\CCC/C(=C\c3cc(OC)ccc3OC)C2=O)c1 | – | – | 1.16% | – | – | 100% | – | –
O=C1/C(=C/c2ccccc2)CCC/C1=C\c1ccccc1 | – | – | 1.93% | – | – | – | – | –
COc1ccc(OC)c(/C=C2\CCCC3C2=NN(c2ccc(Br)cc2)C3c2cc(OC)ccc2OC)c1 (configuration not stated) | – | – | 0.77% | – | – | 100% | – | –
COc1ccc(OC)c(/C=C2\CCCCC3C2=NN(c2ccc(Br)cc2)C3c2cc(OC)ccc2OC)c1 (configuration not stated) | – | – | – | – | – | 100% | – | –
N#CC1=C(N)OC2=C(CCC/C2=C\c2ccccc2)C1c1ccccc1 (configuration not stated) | – | – | 0.19% | – | – | – | – | –
CC(C)(C(=O)/C=C/c1ccc(Cl)cc1)C(=O)/C=C/c1ccc(Cl)cc1 | – | – | 2.32% | – | – | 100% | – | –
Brc1ccc(N2N=C3/C(=C/c4ccccc4)CCCC3C2c2ccccc2)cc1 (configuration not stated) | – | – | 1.74% | – | – | 100% | – | –
COc1ccc(/C=C2\CCC/C(=C\c3ccc(OC)cc3)C2=O)cc1 | – | – | 1.35% | – | – | 100% | – | –

Compound | viability at 20 µg/mL (HepG2) | viability at 20 µg/mL (WI-38) | inhibition [1] | viability at 20 µg/mL (MCF7) | viability at 20 µg/mL (Vero) | hemolysis at 2 ug/ml [2] | inhibition at 20 µg/mL [3] | inhibition [4]
COc1ccc(/C=C2\CCCC/C(=C\c3ccc(OC)cc3)C2=O)cc1 | – | – | 1.74% | – | – | 100% | – | –
COc1ccc(/C=C2\CCCC3=C2OC(N)=C(C#N)C3c2ccc(OC)cc2)cc1 (configuration not stated) | – | – | 0.38% | – | – | – | – | –
O=c1[nH]cc(F)c(=O)[nH]1 [FLUOROURACIL] | 0% | 0% | – | 0% | 0% | – | – | –
O=C1O[C@H]([C@@H](O)CO)C(O)=C1O [ASCORBIC ACID] | – | – | – | – | – | – | 17.6% | 80.8%
COc1ccc(OC)c(/C=C2\CCCC3C2=NNC3c2cc(OC)ccc2OC)c1 (configuration not stated) | 78% | 100% | 25.6% | 82% | 67% | 100% | – | –
COc1ccc(/C=C2\CCCC3C2=NN(c2ccc(Br)cc2)C3c2ccc(OC)c(OC)c2)cc1OC (configuration not stated) | – | – | 0.19% | – | – | 100% | – | –
COc1cc(/C=C/C(=O)CC(=O)/C=C/c2ccc(O)c(OC)c2)ccc1O [CURCUMIN] | 18% | 51% | 87.6% | 19% | 24% | – | – | –
N#CC1=C(N)OC2=C(CCC/C2=C\c2ccc(O)cc2)C1c1ccc(O)cc1 (configuration not stated) | 78% | 79% | 16.7% | 82% | 83% | 100% | – | –
CC(C)(C(=O)/C=C/c1ccccc1)C(=O)/C=C/c1ccccc1 | – | – | 4.84% | – | – | 100% | – | –
COc1cc(/C=C2\CCC/C(=C\c3ccc(O)c(OC)c3)C2=O)ccc1O [CYCLOVALONE] | 28% | 58% | 74.2% | 32% | 69% | – | – | –
Oc1ccc(/C=C2\CCCC3C2=NNC3c2ccc(O)cc2)cc1 (configuration not stated) | 89% | 88% | 54.5% | 75% | 76% | – | – | –
COc1ccc(/C=C2\CCCCC3C2=NN(c2ccc(Br)cc2)C3c2ccc(OC)cc2)cc1 (configuration not stated) | – | – | – | – | – | 100% | – | –
COc1ccc(/C=C2\CCCC/C(=C\c3ccc(OC)c(OC)c3)C2=O)cc1OC | – | – | 0.77% | – | – | 100% | – | –
O=C1/C(=C/c2ccc(Cl)cc2)CCC/C1=C\c1ccc(Cl)cc1 | – | – | 0.58% | – | – | 100% | – | –
COc1ccc(OC)c(/C=C2\CCCC/C(=C\c3cc(OC)ccc3OC)C2=O)c1 | – | – | 5.03% | – | – | 100% | – | –
COc1ccc(/C=C/C(=O)C(C)(C)C(=O)/C=C/c2ccc(OC)cc2)cc1 | – | – | 7.75% | – | – | 100% | – | –
COc1cc(/C=C2\CCCC3C2=NNC3c2ccc(O)c(OC)c2)ccc1O (configuration not stated) | 21% | 65% | 76.7% | 19% | 12% | – | – | –
COc1ccc(/C=C2\CCCC3=C2OC(N)=C(C#N)C3c2ccc(OC)c(OC)c2)cc1OC (configuration not stated) | 19% | 12% | 16.9% | 21% | 65% | 100% | – | –
COc1ccc(OC)c(/C=C/C(=O)C(C)(C)C(=O)/C=C/c2cc(OC)ccc2OC)c1 | 84% | 80% | 3.68% | 79% | 74% | 100% | – | –
